Experimental data: US5102900A, “Imidazoles useful as antiatherosclerotic agents” (Rhone-Poulenc Rorer S.A., priority 1989, dated 1992)

Columns and labels:
[1] = molecular target: T1, acyl coenzyme-A:cholesterol-O-acyl transferase (ACAT;EC 2.3.1.26) (Rattus norvegicus, UniProt Q7TQM4); assay: In vitro ACAT inhibition in liver microsomes of cholesterol-fed rats, radiolabelled oleoyl-CoA; format: biochemical; conditions: 1μg/ml; microsomes from livers of rats fed 0.5% w/w cholesterol and 0.25% w/w cholic acid for 7 days; read-out: In-vitro % Inhibition (degree of ACAT inhibition)
T1 construct: microsomes, prepared from the livers of rats; from tissue; host or cells: liver microsomes of rats fed 0.5% w/w cholesterol and 0.25% w/w cholic acid for 7 days
T1 sequence (Q7TQM4 1-524): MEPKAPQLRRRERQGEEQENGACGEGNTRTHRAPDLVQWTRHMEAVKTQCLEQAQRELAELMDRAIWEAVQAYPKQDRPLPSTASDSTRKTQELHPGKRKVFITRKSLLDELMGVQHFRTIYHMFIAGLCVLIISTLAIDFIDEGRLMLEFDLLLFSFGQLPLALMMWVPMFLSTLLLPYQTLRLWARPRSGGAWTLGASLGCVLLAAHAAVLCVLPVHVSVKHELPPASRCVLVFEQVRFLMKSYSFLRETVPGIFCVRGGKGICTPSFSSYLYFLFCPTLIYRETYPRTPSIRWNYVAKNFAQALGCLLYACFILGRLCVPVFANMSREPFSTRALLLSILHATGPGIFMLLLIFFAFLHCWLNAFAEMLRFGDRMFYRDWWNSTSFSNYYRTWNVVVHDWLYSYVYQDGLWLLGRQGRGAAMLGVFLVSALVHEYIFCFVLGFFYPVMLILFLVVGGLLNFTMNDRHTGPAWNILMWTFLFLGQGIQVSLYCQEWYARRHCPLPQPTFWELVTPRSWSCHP

rats = assay: In vivo inhibition of increase in plasma cholesterol level in rats fed a cholesterol supplemented diet; parameters: species or system rat; conditions: 0.03% w/w test compound in cholesterol supplemented diet, after 3 days, 100% or more = similar to control rats on normal diet
Description: In assays performed in vitro microsomes, prepared from the livers of rats fed a diet supplemented with 0.5% w/w cholesterol and 0.25% w/w cholic acid for 7 days, were incubated with radiolabelled oleoyl-CoA in the presence of compounds according to the invention at a concentration of 1μg/ml.
Values of 100% or more indicate plasma cholesterol concentrations that were similar to those of control rats fed on a normal (non-supplemented) diet.

## CC1CC(C)OC(c2nc(-c3ccccc3)c(-c3ccccc3)[nH]2)O1 (racemic) [Compound C, (±)-cis/trans-2-(4,6-dimethyl-1,3-dioxan-2-yl)-4,5-diphenylimidazole]
[1]
  inhibition at 1 µg/mL: 74%

## c1ccc(-c2nc(C3OCCCO3)[nH]c2-c2ccccc2)cc1 [Compound A, 2-(1,3-dioxan-2-yl)-4,5-diphenylimidazole]
rats
  In-vivo % Reduction (inhibition of increase in plasma cholesterol level relative to control animals): 86%
[1]
  inhibition at 1 µg/mL: 94%
